Results published in publication PMC9050923, “6,N^2-Diaryl-1,3,5-triazine-2,4-diamines: synthesis, antiproliferative activity and 3D-QSAR modeling” (RSC Advances, 2020).
Read-outs that look alike come from different tables or passages of the source.

What was measured:
[1] = tested on: MDA-MB231; assay: MTT assay, MDA-MB231 breast cancer cells; assay type: cell-based; settings: Homo sapiens, MDA-MB-231; for viability at 10 µM: 72 h after the treatment, mean of three independent experiments, read-out: Percentage of cell viability MDA-MB231
Outline: (§1)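 Cells seeded 24 h at 37 °C, 5% CO2, then treated 72 h with a concentration range; single-point screen at 10 μM gave % viability. MTT (0.5 mg/mL, 4 h), DMSO-solubilised, A570; GI50 from sigmoidal curves, mean of three experiments.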

[2] = tested on: SKBR-3; assay: MTT assay, SKBR-3 breast cancer cells; assay type: cell-based; settings: Homo sapiens, SK-BR-3, MTT; for viability at 10 µM: 72 h after the treatment, mean of three independent experiments, read-out: Percentage of cell viability SKBR-3; for GI50: 72 h, mean of three independent experiments ± SEM
Outline: as §1

[3] = tested on: MCF-7; assay: MTT assay, MCF-7 breast cancer cells; assay type: cell-based; settings: Homo sapiens; for viability at 10 µM: MCF7, 10 μM, 72 h after the treatment, mean of three independent experiments, read-out: Percentage of cell viability MCF-7; for GI50: MCF7, 72 h, mean of three independent experiments ± SEM
Outline: as §1

[4] = tested on: MCF-10A; assay: MTT assay, MCF-10A normal breast cells; assay type: cell-based; settings: Homo sapiens, 72 h, read-out: GI50 (μM) ± SEM MCF-10A
Protocol: All the compounds, selected for determination of GI50 values against MDA-MB231 cells, were also used for the experiments with MCF-10A normal breast cells.
The cytotoxic activity of 6,N^2-diaryl-1,3,5-triazine-2,4-diamines (1–126) was evaluated against three breast carcinoma cell lines (MDA-MB231, SKBR-3, and MCF-7) and normal breast cell line (MCF-10A) by MTT assay.[22] All cells were obtained from the American Type Culture Collection and were grown in 10% fetal bovine serum and 1% pen-strep antibiotic supplemented media (DMEM for MDA-MB231 and SKBR-3, RPMI for MCF-7, and MEGM for MCF-10A). For MTT assay, 20 000 to 75 000 cells per mL (based on the doubling time for each cell line) were seeded in 96 well plates and incubated for 24 h at 37 °C in 5% CO2 incubator. Then, compounds at different concentrations were added followed by the incubation at 37 °C for 72 h. After that, MTT solution (0.5 mg mL^−1) was added and the plates were incubated for another 4 h. The supernatant was then discarded and 100 μL of DMSO was added to each well. The plates were then read by Tecan NanoQuant (model: infinite m200 pro) plate reader and absorbance was measured at 570 nm. GI50 values were calculated using sigmoidal concentration–response curves (see ESI ^†) generated using the GraphPad Prism 7 program. Three independent experiments were carried out and the data were represented as mean of the three experiments.

[5] = −log[GI50], MDA-MB231, read-out: Experimental pGI50 (converted)
[6] = 72 h, MTT, mean of three independent experiments ± SEM, read-out: GI50 (μM) ± SEM MDA-MB231

Compound | melting point [°C] | GI50 [1, 5] [µM] | GI50 [1, 6] [µM] | GI50 [2] [µM] | GI50 [3] [µM] | viability at 10 µM ([1]; MTT) [%] | viability at 10 µM [2] [%] | viability at 10 µM [3] [%] | GI50 [4] [µM]
Cc1cccc(-c2nc(N)nc(Nc3ccc(F)cc3)n2)c1 (hydrate or solvate) [Compound 53, N ^2-(4-Fluorophenyl)-6-(3-methylphenyl)-1,3,5-triazine-2,4-diamine] | 138 to 139 |  |  |  |  |  |  |  | 
COc1ccc(Nc2nc(N)nc(-c3cccc(C)c3)n2)cc1 (hydrate or solvate) [Compound 57, N ^2-(4-Methoxyphenyl)-6-(3-methylphenyl)-1,3,5-triazine-2,4-diamine] | 150 to 152 |  |  |  |  |  |  |  | 
Nc1nc(Nc2ccccc2F)nc(-c2cccs2)n1 (hydrate or solvate) [Compound 116, N ^2-(2-Fluorophenyl)-6-(thiophen-2-yl)-1,3,5-triazine-2,4-diamine] | 165 to 167 |  |  |  |  |  |  |  | 
COc1ccc(Nc2nc(N)nc(-c3cccs3)n2)cc1 (hydrate or solvate) [Compound 123, N ^2-(4-Methoxyphenyl)-6-(thiophen-2-yl)-1,3,5-triazine-2,4-diamine] | 139 to 141 |  |  |  |  |  |  |  | 
Nc1nc(Nc2ccccc2F)nc(-c2ccccc2)n1 [Compound 2, N ^2-(2-Fluorophenyl)-6-phenyl-1,3,5-triazine-2,4-diamine] | 156 to 158 |  |  |  |  | 82 | 83 | 99 | 
Nc1nc(Nc2ccc(F)cc2)nc(-c2ccccc2)n1 [Compound 3, N ^2-(4-Fluorophenyl)-6-phenyl-1,3,5-triazine-2,4-diamine] | 172 to 174 |  |  |  |  | 81 | 84 | 100 | 
COc1ccc(Nc2nc(N)nc(-c3ccc(F)cc3)n2)cc1 [Compound 30, 6-(4-Fluorophenyl)-N^2-(4-methoxyphenyl)-1,3,5-triazine-2,4-diamine] | 158 to 160 |  |  |  |  | 74 | 90 | 92 | 
Nc1nc(Nc2ccccc2)nc(-c2ccc(Cl)cc2)n1 [Compound 34, 6-(4-Chlorophenyl)-N^2-phenyl-1,3,5-triazine-2,4-diamine] | 154 to 156 |  |  |  |  | 81 | 100 | 100 | 
Nc1nc(Nc2ccc(Br)cc2)nc(-c2cccs2)n1 [Compound 120] |  | 11.7 | 11.7 ± 1.39 | > 20 | > 20 | 46 | 87 | 88 | > 25
Cc1ccc(Nc2nc(N)nc(-c3cccs3)n2)cc1 [Compound 121] |  | 13.8 | 13.9 ± 1.74 | > 20 | > 20 | 49 | 95 | 97 | > 25

The next lines start with results.

melting point [°C] | GI50 [1, 5] [µM] | GI50 [1, 6] [µM] | GI50 [2] [µM] | GI50 [3] [µM] | Compound | viability at 10 µM ([1]; MTT) [%] | viability at 10 µM [2] [%] | viability at 10 µM [3] [%] | GI50 [4] [µM]
82 to 84 |  |  |  |  | Nc1nc(Nc2ccccc2Cl)nc(-c2ccccc2)n1 (hydrate or solvate) [Compound 4, N ^2-(2-Chlorophenyl)-6-phenyl-1,3,5-triazine-2,4-diamine] |  |  |  | 
134 to 136 |  |  |  |  | Cc1cccc(-c2nc(N)nc(Nc3ccc(C(C)C)cc3)n2)c1 (hydrate or solvate) [Compound 59, N ^2-(4-Isopropylphenyl)-6-(3-methylphenyl)-1,3,5-triazine-2,4-diamine] |  |  |  | 
163 to 165 | 14.1 |  |  |  | COc1ccc(Nc2nc(N)nc(-c3ccc(OC)cc3)n2)cc1 [Compound 71, N ^2,6-Bis(4-methoxyphenyl)-1,3,5-triazine-2,4-diamine] | 56 | 93 | 95 | 
150 to 152 |  |  |  |  | Nc1nc(Nc2ccc(F)cc2)nc(-c2ccc(C(F)(F)F)cc2)n1 [Compound 84, N ^2-(4-Fluorophenyl)-6-(4-(trifluoromethyl)phenyl)-1,3,5-triazine-2,4-diamine] | 95 | 98 | 100 | 
